Like-named read-outs stand apart in the source and are kept apart here.

Test [1] has as its target CCR5 (Homo sapiens, UniProt P51681). The test is described as follows: assay for CCR5 binding according to Combadiere et al. An excerpt: Biol., 60, 147-52 (1996); and/or by using the intracellular calcium mobilisation assays as described by the same authors. Cell lines expressing the receptor of interest include those naturally expressing the receptor, such as PM-1, or IL-2 stimulated peripheral blood lymphocytes (PBL), or a cell engineered to express a recombinant receptor, such as CHO, 300.19, L1.2 or HEK-293.

Test [2] deals with HIV-1 fusion. In words: gp160 induced cell-cell fusion assay (HeLa P4 / CHO-Tat10). Type of test: cell-based. Particulars: Human immunodeficiency virus 1, HeLaP4, read-out: IC50 against HIV-1 fusion (gp160 induced cell-cell fusion). The procedure:
The gp160 induced cell-cell fusion assay uses a HeLa P4 cell line and a CHO-Tat10 cell line.
The HeLa P4 cell line expresses CCR5 and CD4 and has been transfected with HIV-1 LTR-β-Galactosidase. The media for this cell line is Dulbecco modified eagle's medium (D-MEM) (without L-glutamine) containing 10% foetal calf serum (FCS), 2 mM L-glutamine penicillin/streptomycin (Pen/Strep; 100 U/mL penicillin+[…] streptomycin), and 1 μg/ml puromycin.
The CHO cell line is a Tat (transcriptional trans activator)-expressing clone from a CHO JRR17.1 cell line that has been transfected with pTat puro plasmid. […]
Upon cell fusion, Tat present in the CHO cell is able to transactivate the HIV-1 long terminal repeat (LTR) present in the HeLa cell leading to the expression of the β-Galactosidase enzyme. This expression is then measured using a Fluor Ace™ β-Galactosidase reporter assay kit (Bio-Rad cat no. 170-3150). This kit is a quantitative fluorescent assay that determines the level of expression of β-galactosidase using 4-methylumbelliferul-galactopyranoside (MUG) as substrate. β-Galactosidase hydrolyses the fluorogenic substrate resulting in release of the fluorescent molecule 4-methylumbelliferone (4 MU). Fluorescence of 4-methylumbelliferone is then measured on a fluorometer using an excitation wavelength of 360 nm and emission wavelength of 460 nm. […]

Sequence of CCR5 (P51681 whole entry): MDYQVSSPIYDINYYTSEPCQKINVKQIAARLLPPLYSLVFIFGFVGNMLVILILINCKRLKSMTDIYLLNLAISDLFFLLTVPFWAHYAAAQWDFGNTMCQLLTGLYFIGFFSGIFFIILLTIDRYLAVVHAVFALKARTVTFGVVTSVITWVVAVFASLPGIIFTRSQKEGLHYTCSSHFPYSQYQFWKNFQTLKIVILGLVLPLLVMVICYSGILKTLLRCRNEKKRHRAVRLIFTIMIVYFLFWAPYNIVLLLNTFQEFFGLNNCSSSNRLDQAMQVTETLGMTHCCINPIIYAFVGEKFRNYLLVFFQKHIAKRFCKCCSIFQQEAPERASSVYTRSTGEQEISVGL

One may read the IC50 as the concentration needed to halve the response being measured. On to `CC(=O)N[C@@H](CCN1[C@@H]2CC[C@H]1C[C@@H](n1c(C)nc3c1CCN(C(=O)C(C)C)C3)C2)c1cccc(F)c1` [Example 4, N-{(1S)-3-[3-endo-(5-Isobutyryl-2-methyl-4,5,6,7-tetrahydro-1H-imidazo[4,5-c]pyridin-1-yl)-8-azabicyclo[3.2.1]oct-8-yl]-1-(3-fluorophenyl)propyl}acetamide], for which the IC50 in test [1] (ligand MIP-1α, read-out: IC50 CCR5 binding (MIP-1α)) was 7.5 nM; in test [1] (ligand MIP-1β, read-out: IC50 CCR5 binding (MIP-1β)) it was 7.3 nM; in test [1] (ligand RANTES, read-out: IC50 CCR5 binding (RANTES)), 6.7 nM.

In the case of `CCC(=O)N1CCc2c(nc(C)n2[C@H]2C[C@H]3CC[C@@H](C2)N3CC[C@H](NC(C)=O)c2cccc(F)c2)C1` [Example 5, N-{(1S)-3-[3-endo-(2-Methyl-5-propionyl-4,5,6,7-tetrahydro-1H-imidazo[4,5-c]pyridin-1-yl)-8-azabicyclo[3.2.1]oct-8-yl]-1-(3-fluorophenyl)propyl}acetamide], the IC50 in test [2] worked out at 0.12 nM; in test [1] (IC50 CCR5 binding (MIP-1α), ligand MIP-1α), 2.7 nM; in test [1] (IC50 CCR5 binding (MIP-1β), ligand MIP-1β) it was 2.4 nM; in test [1] (IC50 CCR5 binding (RANTES), ligand RANTES) it was 1.9 nM.

In the case of `CC(=O)N[C@@H](CCN1[C@@H]2CC[C@H]1C[C@@H](n1c(C)nc3c1CCN(C(C)=O)C3)C2)c1cccc(F)c1` [Example 1, N-{(1S)-3-[3-endo-(5-Acetyl-2-methyl-4,5,6,7-tetrahydro-1H-imidazo[4,5-c]pyridin-1-yl)-8-azabicyclo[3.2.1]oct-8-yl]-1-(3-fluorophenyl)propyl}acetamide], in test [2], the IC50 came out at 0.13 nM.

Values taken from patent US7790740B2 (priority 2003, dated 2010).
